Assay results published in US20080039410A1, “Inositol 1,4,5-Trisphosphate Receptor Mutants and Uses Thereof” (priority 2004, published 2008).
Like-named read-outs stand apart in the source and are kept apart here. One block for each substance: values may come before it.

Test system: S2− InsP3R-1
Experiment: CCh concentration-response of Ca2+ release in Dt-40 3ko cells expressing m3R and S2− InsP3R-1 constructs
Type: cell-based, rat
Conditions: for maximum peak Δ response to CCh: Fura-2 340/380 ratio; for fold change from WT (CCh EC50): S2 − InsP3R-1 constructs, Table 2; for EC50: fit of normalized initial peak, read-out: EC50 for CCh-induced Ca^2+ release
Source text: The rat S2^+ InsP3R-1 in the expression plasmid pIRES-GFP was digested with the restriction endonuclease SalI. The overhang created by digestion was blunted by using T4 polymerase. An EcoRI linker was then ligated onto the blunted ends of the construct. The entire receptor DNA was excised from the plasmid using EcoRI and ligated into the plasmid MXT-1. The region containing the S2^− splice variant and potential PKA phosphorylation sites was excised from its backbone in pCDNA 3.1+ by RsrII and KasI and ligated into the InsP3R construct in MXT-1. The potential PKA phosphorylation sites Ser-1589 and Ser-1755 were mutated, individually in both splice variants and together in the S2^− splice variant, to alanines or glutamates by using sequential PCR mutagenesis. The outside primers used for the mutagenesis reaction flanked the restriction sites RsrII and KasI. Following mutation, the resulting fragments were cut with RsrII and KasI and inserted into the InsP3R-1 backbone at the corresponding sites. The mutations were confirmed by Big Dye fluorescent sequencing. Mutated receptor DNAs were excised from MXT-1 by using EcoRI and ligated into the mammalian expression vector pGW (provided by Dr. David Yue, Johns Hopkins University). Orientation was confirmed by using restriction enzyme digestion. Mutants were named based on the splice variant, either S2+ or S2− followed by the amino acid present at position 1589 and 1755. Thus, a mutation in S2^+ InsP3R-1 S1755E is designated, “S2+SE,” and in InsP3R-1 […] S1755A is designated “S2^−SA”. Similarly, an S2− InsP3R-1 with mutations in both S1589E and S1755E is designated “S2−EE”. The numbering of residues is based on the full-length rat InsP3R-1.
Dt-40 cells lacking all three InSP3 receptor subtypes were transfected by using electroporation at 350 V and 950 microfarads (4-mm gap cuvette). 2×10^7 cells were co-transfected with 25 μg of the InsP3R-1 cDNA, 25 μof the muscarinic type 3 (m3R) receptor DNA, and 4 μg of the red fluorescent protein plasmid pHcRed1-N1 (Clontech). Cells were incubated with DNA in 500 μl of Opti-MEM media (Invitrogen) on ice for 10 min. The cell/DNA mixture was electroporated, incubated on ice for 30 min, increased to 5 ml with Opti-MEM, and placed in a 5% CO2 incubator at 39° C. for 5 h. The cells were then centrifuged and resuspended in 12 ml of complete RPMI media (Invitrogen). Transfection efficiency was typically ˜20%. Experiments were performed within 32 h of transfection.
Transfected Dt-40 3ko cells were washed once in a HEPES-buffered physiological saline solution (HEPES-PSS) containing (in mM) 5.5 glucose, 137 NaCl, 0.56 MgCl2, 4.7 KCl, 1 Na2HPO4, 10 HEPES (pH 7.4), 1.2 CaCl2, and 1% w/v bovine serum albumin. Cells were then resuspended in bovine serum albumin HEPES-PSS with 1 μM Fura-2 (AM), placed on a 15-mm glass coverslip in a low volume perfusion chamber, and allowed to adhere for 30 min at room temperature. Cells were perfused continuously for 10 min with HEPES-PSS before experimentation to allow complete Fura-2 de-esterification. A field of cells for each experiment was chosen that contained a wide range of transfection efficiency based upon the intensity of red fluorescence emitted when excited at 560 nm. Individual cells that had emission gray levels between 1500 and 2500 were subsequently chosen to standardize expression levels. [Ca^2+]i imaging was performed essentially as described previously by using an inverted epifluorescence Nikon microscope with a 40× oil immersion objective lens (numerical aperture, 1.3) (100). Cells were excited alternately with light at 340 and 380±10 nm bandpass filters (Chroma, Rockingham, Vt.) using a monochrometer (TILL Photonics, Pleasanton, Calif.). Fluorescence images were captured and digitized with a digital camera driven by TILL Photonics software. Images were captured every 2 s with an exposure of 2 ms and 4 by 4 binning. 340/380 ratio images were calculated online and stored immediately to a hard disk. […]

[1] = listed as S1589E/S1755E mutant InsP3R-1

- fold change from WT (CCh EC50): 1 fold
Substance: S2−WT: wild-type rat type-1 InsP3 receptor, peripheral short S2− splice variant (SEQ ID NO: 17)
- maximum peak Δ response to CCh: 0.9±0.1 ratio units
- EC50: 32.6 ± 7.5 nM

- fold change from WT (CCh EC50): 2.6 fold
Substance: S2−ES: phosphomimetic short splice variant S1589E
- fold more sensitive than wild type S2− InsP3R-1 (CCh-induced Ca^2+ release): ~3 fold
- sensitivity of CCh-induced Ca^2+ release relative to other constructs: intermediate sensitivity
- maximum peak Δ response to CCh: 0.54±0.1 ratio units
- EC50: 12.4 ± 0.5 nM

- fold change from WT (CCh EC50): 2.4 fold
Substance: S2−SE: phosphomimetic short splice variant of S1755E
- fold more sensitive than wild type S2− InsP3R-1 (CCh-induced Ca^2+ release): ~3 fold
- sensitivity of CCh-induced Ca^2+ release relative to other constructs: intermediate sensitivity
- maximum peak Δ response to CCh: 0.78±0.1 ratio units
- EC50: 13.5 ± 1 nM

The remaining lines, values behind:

Substance: G1690A: InsP3R-1 S2− variant with glycine to alanine substitution at position 1690 (nucleotide binding site mutant)
- maximal response in full CCh concentration-response curve: comparable to that seen in the wild-type receptor

Substance: S2−EE: phosphomimetic S1589E/S1755E mutant of the short splice variant
- sensitivity of CCh-induced Ca^2+ release relative to other constructs: greatest
- maximum peak Δ response to CCh: 1.13+0.1 ratio units
- fold change from WT (CCh EC50): 7.6 fold
- EC50: 4.3 nM
- fold more sensitive than nonphosphorylatable S1589A/S1755A S2− InsP3R-1 (listed as S2− mutant): ~50 fold
- fold more sensitive than wild type S2− InsP3R-1 (CCh-induced Ca^2+ release) (listed as S2− mutant): 7.5 fold
- fold more sensitive than nonphosphorylatable S1589A/S1755A S2− InsP3R-1 [1]: approximately 35 fold
- fold more sensitive than wild type S2− InsP3R-1 (CCh-induced Ca^2+ release) [1]: approximately 7.5 fold
- sensitivity of CCh-induced Ca^2+ release relative to other constructs [1]: markedly potentiated Ca^2+ release
